This assay has as its target human-derived PIKfyve kinase (Homo sapiens (Human), UniProt Q9Y2I7). Nature of the assay: PIKfyve enzyme inhibition assay (ADP-Glo). Particulars: PIKfyve enzyme inhibitory assay; PI(3)P 10 μm, ATP 2 μm, 60 minutes. Format: biochemical. How it is done:
For each of the compounds prepared in Examples 1 to 33, the PIKfyve enzyme inhibitory activity was measured by using a QS S Assis PIKFYVE (PIP5K3)_ADP-Glo™ Kit (Cat. #11-118) made by Carna Bioscience. 5 μL of each of human-derived PIKfyve kinase, PI(3)P, and ATP solution was added to a 384-well plate (such that final concentrations of each solution are 375 ng/ml, 10 μm, and 2 μm, respectively). The compound to be evaluated underwent serial dilution according to the set concentrations, and 5 μL of the diluted solution was added to each well and caused a reaction for 60 minutes. MgCl2 was mixed in ADP-Glo™ solution (Promega, Cat. #V9102) to a final concentration of 100 mM, and 20 μL of the mixed solution was added to each well and caused a reaction at room temperature for 40 minutes. 40 μL of kinase detection solution was added to each well and caused a reaction at room temperature for 40 minutes. Then, the luminescence signals were detected by using a Synergy™ NEO microplate analyzer. Well to which no enzyme was added were used as a negative control, whereas wells to which no drug was added were used as a positive control, so as to calculate the enzyme inhibitory ability (%) of drugs. The 50% inhibitor concentration (IC50) values were calculated by using a GraphPad Prism software.
In Table 1, when the case where the IC50 value was 50 nM or less was indicated as A, the case where the IC50 value was greater than 50 nM but equal to or less than 100 nM was indicated as B, and the case where the IC50 value was greater than 100 nM was indicated as C.
On the technique in general: In ADP-Glo the light output rises with the ADP produced.

Molecules are shown by their SMILES. Counter-ions that a name gives are not always drawn.

Sequence of human-derived PIKfyve kinase (Q9Y2I7 whole entry): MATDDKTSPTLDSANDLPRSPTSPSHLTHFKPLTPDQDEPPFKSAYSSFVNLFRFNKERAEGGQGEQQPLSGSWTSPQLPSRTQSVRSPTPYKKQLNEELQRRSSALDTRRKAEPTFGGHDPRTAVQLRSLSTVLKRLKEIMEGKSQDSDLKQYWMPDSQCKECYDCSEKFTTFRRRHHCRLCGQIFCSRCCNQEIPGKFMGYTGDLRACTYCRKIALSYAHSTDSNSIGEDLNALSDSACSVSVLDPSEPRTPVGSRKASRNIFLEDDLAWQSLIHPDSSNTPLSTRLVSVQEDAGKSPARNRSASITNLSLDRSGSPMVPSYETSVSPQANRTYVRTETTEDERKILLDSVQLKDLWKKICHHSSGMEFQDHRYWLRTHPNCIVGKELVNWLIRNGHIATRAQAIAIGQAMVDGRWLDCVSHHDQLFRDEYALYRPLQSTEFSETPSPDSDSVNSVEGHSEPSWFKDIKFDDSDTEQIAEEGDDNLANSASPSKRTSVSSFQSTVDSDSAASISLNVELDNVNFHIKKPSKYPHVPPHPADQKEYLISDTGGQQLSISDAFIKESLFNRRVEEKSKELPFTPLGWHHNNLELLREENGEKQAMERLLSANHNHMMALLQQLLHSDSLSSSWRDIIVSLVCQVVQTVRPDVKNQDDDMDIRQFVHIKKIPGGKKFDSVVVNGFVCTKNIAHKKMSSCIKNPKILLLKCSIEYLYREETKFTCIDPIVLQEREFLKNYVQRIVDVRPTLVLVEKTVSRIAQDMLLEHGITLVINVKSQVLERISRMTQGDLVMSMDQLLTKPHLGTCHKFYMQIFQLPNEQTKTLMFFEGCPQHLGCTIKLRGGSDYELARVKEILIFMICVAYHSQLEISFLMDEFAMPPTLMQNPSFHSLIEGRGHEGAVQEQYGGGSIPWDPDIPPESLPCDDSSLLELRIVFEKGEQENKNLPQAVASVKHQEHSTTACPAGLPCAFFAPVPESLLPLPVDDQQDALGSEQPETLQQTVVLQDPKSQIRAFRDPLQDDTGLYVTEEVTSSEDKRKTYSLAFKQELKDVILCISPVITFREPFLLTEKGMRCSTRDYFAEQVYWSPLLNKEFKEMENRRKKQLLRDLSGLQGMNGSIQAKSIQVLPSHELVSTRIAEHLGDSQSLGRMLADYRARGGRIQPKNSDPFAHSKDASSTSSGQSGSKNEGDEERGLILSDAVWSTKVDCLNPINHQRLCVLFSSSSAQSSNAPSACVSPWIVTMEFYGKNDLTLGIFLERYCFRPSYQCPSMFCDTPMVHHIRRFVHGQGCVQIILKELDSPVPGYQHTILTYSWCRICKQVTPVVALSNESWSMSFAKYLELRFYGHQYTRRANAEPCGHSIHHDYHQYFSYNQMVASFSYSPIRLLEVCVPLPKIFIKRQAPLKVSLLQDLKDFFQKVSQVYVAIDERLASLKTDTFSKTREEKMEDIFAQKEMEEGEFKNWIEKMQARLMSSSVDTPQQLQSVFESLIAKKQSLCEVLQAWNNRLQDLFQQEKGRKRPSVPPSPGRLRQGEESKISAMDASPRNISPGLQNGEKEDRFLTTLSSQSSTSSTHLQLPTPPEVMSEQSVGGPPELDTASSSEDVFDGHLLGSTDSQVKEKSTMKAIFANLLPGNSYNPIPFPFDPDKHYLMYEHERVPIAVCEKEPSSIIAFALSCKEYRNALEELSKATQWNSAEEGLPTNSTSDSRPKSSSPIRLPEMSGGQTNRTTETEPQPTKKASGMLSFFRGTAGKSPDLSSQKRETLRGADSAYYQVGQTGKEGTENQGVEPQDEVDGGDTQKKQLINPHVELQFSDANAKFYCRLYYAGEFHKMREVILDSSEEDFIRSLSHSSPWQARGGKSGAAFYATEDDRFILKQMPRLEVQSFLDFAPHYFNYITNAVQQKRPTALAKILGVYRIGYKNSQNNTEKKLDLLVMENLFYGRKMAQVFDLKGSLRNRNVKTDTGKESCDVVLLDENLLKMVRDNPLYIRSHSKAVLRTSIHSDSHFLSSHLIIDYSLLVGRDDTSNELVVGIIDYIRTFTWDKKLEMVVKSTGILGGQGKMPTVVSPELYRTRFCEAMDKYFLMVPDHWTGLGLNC

Usually IC50 stands for the concentration at which inhibition is half-maximal. `O=C(Nc1cccc(-c2nc(N3CCOCC3)c3sc(-c4ccncc4)cc3n2)c1)c1ccncc1` [Example 1, N-(3-(4-morpholino-6-(pyridin-4-yl)thieno[3,2-d]pyrimidin-2-yl)phenyl)isonicotinamide]: the IC50 is at most 50 nM.
On to `O=C(Nc1cccc(-c2nc(N3CCOCC3)c3sc(-c4cccnc4)cc3n2)c1)c1ccncc1` [Example 2, N-(3-(4-morpholino-6-(pyridin-3-yl)thieno[3,2-d]pyrimidin-2-yl)phenyl)isonicotinamide], for which the half-inhibitory concentration (IC50) is at most 50 nM.
Regarding `O=C(Nc1cccc(-c2nc(N3CCOCC3)c3sc(-c4cnco4)cc3n2)c1)c1ccncc1` [Example 3, N-(3-(4-morpholino-6-(oxazol-5-yl)thieno[3,2-d]pyrimidin-2-yl)phenyl)isonicotinamide], the IC50 was at most 50 nM.
The figure for `O=C(Nc1cccc(-c2nc(N3CCOCC3)c3sc(-c4ccncc4)cc3n2)c1)c1cccnc1` [Example 4, N-(3-(4-morpholino-6-(pyridin-4-yl)thieno[3,2-d]pyrimidin-2-yl)phenyl)nicotinamide] is at most 50 nM; for `O=C(Nc1cccc(-c2nc(N3CCOCC3)c3sc(-c4cccnc4)cc3n2)c1)c1cccnc1` [Example 5, N-(3-(4-morpholino-6-(pyridin-3-yl)thieno[3,2-d]pyrimidin-2-yl)phenyl)nicotinamide] it is at most 50 nM.
The figure for `Nc1ccc(-c2cc3nc(-c4cccc(NC(=O)c5cccnc5)c4)nc(N4CCOCC4)c3s2)cc1` [Example 6, N-(3-(6-(4-aminophenyl)-4-morpholinothieno[3,2-d]pyrimidin-2-yl)phenyl)nicotinamide hydrochloride] is at most 50 nM.
On to `O=C(Nc1cccc(-c2nc(N3CCOCC3)c3sc(-c4cnco4)cc3n2)c1)c1cccnc1` [Example 7, N-(3-(4-morpholino-6-(oxazol-5-yl)thieno[3,2-d]pyrimidin-2-yl)phenyl)nicotinamide], for which the IC50 was at most 50 nM.
The result for `O=C(Nc1cccc(-c2nc(N3CCOCC3)c3sc(-c4ccnc5[nH]ccc45)cc3n2)c1)c1cccnc1` [Example 9, N-(3-(4-morpholino-6-(1H-pyrrolo[2,3-b]pyridin-4-yl)thieno[3,2-d]pyrimidin-2-yl)phenyl)nicotinamide] reads at most 50 nM; that for `O=C(Nc1cccc(-c2nc(N3CCOCC3)c3sc(-c4ccnc5[nH]ncc45)cc3n2)c1)c1cccnc1` [Example 10, N-(3-(4-morpholino-6-(1H-pyrazolo[3,4-b]pyridin-4-yl)thieno[3,2-d]pyrimidin-2-yl)phenyl)nicotinamide], 50 to 100 nM.
Take `O=C(Nc1cccc(-c2nc(N3CCOCC3)c3sc(-c4cncc5[nH]ccc45)cc3n2)c1)c1cccnc1` [Example 11, N-(3-(4-morpholino-6-(1H-pyrrolo[2,3-c]pyridin-4-yl)thieno[3,2-d]pyrimidin-2-yl)phenyl)nicotinamide]: the IC50 was over 100 nM.
The result for `O=C(Nc1cccc(-c2nc(N3CCOCC3)c3sc(-c4cccnc4)cc3n2)c1)c1cocn1` [Example 12, N-(3-(4-morpholino-6-(pyridin-3-yl)thieno[3,2-d]pyrimidin-2-yl)phenyl) oxazole-4-carboxamide] reads at most 50 nM; that for `O=C(Nc1cccc(-c2nc(N3CCOCC3)c3sc(-c4cccnc4)cc3n2)c1)c1cnco1` [Example 13, N-(3-(4-morpholino-6-(pyridin-3-yl)thieno[3,2-d]pyrimidin-2-yl)phenyl) oxazole-5-carboxamide], at most 50 nM.
As for `O=C(Nc1cccc(-c2nc(N3CCOCC3)c3sc(-c4cccnc4)cc3n2)c1)c1ncco1` [Example 14, N-(3-(4-morpholino-6-(pyridin-3-yl)thieno[3,2-d]pyrimidin-2-yl)phenyl) oxazole-2-carboxamide], the IC50 was at most 50 nM.
On to `Cc1ncc(C(=O)Nc2cccc(-c3nc(N4CCOCC4)c4sc(-c5cccnc5)cc4n3)c2)o1` [Example 15, 2-methyl-N-(3-(4-morpholino-6-(pyridin-3-yl)thieno[3,2-d]pyrimidin-2-yl)phenyl) oxazole-5-carboxamide], for which the IC50 is 50 to 100 nM.
The result for `Cc1ncoc1C(=O)Nc1cccc(-c2nc(N3CCOCC3)c3sc(-c4cccnc4)cc3n2)c1` [Example 16, 4-methyl-N-(3-(4-morpholino-6-(pyridin-3-yl)thieno[3,2-d]pyrimidin-2-yl)phenyl) oxazole-5-carboxamide] reads at most 50 nM.
The result for `Cc1nc(C)c(C(=O)Nc2cccc(-c3nc(N4CCOCC4)c4sc(-c5cccnc5)cc4n3)c2)o1` [Example 17, 2,4-dimethyl-N-(3-(4-morpholino-6-(pyridin-3-yl)thieno[3,2-d]pyrimidin-2-yl)phenyl) oxazole-5-carboxamide] reads at most 50 nM.
The result for `O=C(Nc1cccc(-c2nc(N3CCOCC3)c3sc(-c4cccnc4)cc3n2)c1)c1cscn1` [Example 18, N-(3-(4-morpholino-6-(pyridin-3-yl)thieno[3,2-d]pyrimidin-2-yl)phenyl) thiazole-4-carboxamide] reads over 100 nM; that for `O=C(Nc1cccc(-c2nc(N3CCOCC3)c3sc(-c4cccnc4)cc3n2)c1)c1cncs1` [Example 19, N-(3-(4-morpholino-6-(pyridin-3-yl)thieno[3,2-d]pyrimidin-2-yl)phenyl) thiazole-5-carboxamide], at most 50 nM.
As for `O=C(Nc1cccc(-c2nc(N3CCOCC3)c3sc(-c4cccnc4)cc3n2)c1)c1nccs1` [Example 20, N-(3-(4-morpholino-6-(pyridin-3-yl)thieno[3,2-d]pyrimidin-2-yl)phenyl) thiazole-2-carboxamide], the 50% inhibitory concentration (IC50) is over 100 nM.
The figure for `Cc1ncc(C(=O)Nc2cccc(-c3nc(N4CCOCC4)c4sc(-c5cccnc5)cc4n3)c2)s1` [Example 21, 2-methyl-N-(3-(4-morpholino-6-(pyridin-3-yl)thieno[3,2-d]pyrimidin-2-yl)phenyl) thiazole-5-carboxamide] is at most 50 nM; for `Cc1ncsc1C(=O)Nc1cccc(-c2nc(N3CCOCC3)c3sc(-c4cccnc4)cc3n2)c1` [Example 22, 4-methyl-N-(3-(4-morpholino-6-(pyridin-3-yl)thieno[3,2-d]pyrimidin-2-yl)phenyl) thiazole-5-carboxamide] it is at most 50 nM; for `Cc1nc(C)c(C(=O)Nc2cccc(-c3nc(N4CCOCC4)c4sc(-c5cccnc5)cc4n3)c2)s1` [Example 23, 2,4-dimethyl-N-(3-(4-morpholino-6-(pyridin-3-yl)thieno[3,2-d]pyrimidin-2-yl)phenyl) thiazole-5-carboxamide] it is 50 to 100 nM.
`O=C(Nc1cccc(-c2nc(N3CCOCC3)c3sc(-c4cccnc4)cc3n2)c1)C1CCCNC1` (stereo not drawn) [Example 24, N-(3-(4-morpholino-6-(pyridin-3-yl)thieno[3,2-d]pyrimidin-2-yl)phenyl)piperidine-3-carboxamide]: the IC50 is at most 50 nM.
The figure for `O=C(Nc1cccc(-c2nc(N3CCOCC3)c3sc(-c4cccnc4)cc3n2)c1)C1CCNCC1` [Example 25, N-(3-(4-morpholino-6-(pyridin-3-yl)thieno[3,2-d]pyrimidin-2-yl)phenyl)piperidine-4-carboxamide] is at most 50 nM; for `O=C(Nc1cccc(-c2nc(N3CCOCC3)c3sc(-c4cccnc4)cc3n2)c1)C1CCN(CCO)CC1` [Example 26, 1-(2-hydroxyethyl)-N-(3-(4-morpholino-6-(pyridin-3-yl)thieno[3,2-d]pyrimidin-2-yl)phenyl)piperidine-4-carboxamide] it is 50 to 100 nM.
The figure for `COCCN1CCC(C(=O)Nc2cccc(-c3nc(N4CCOCC4)c4sc(-c5cccnc5)cc4n3)c2)CC1` [Example 27, 1-(2-methoxyethyl)-N-(3-(4-morpholino-6-(pyridin-3-yl)thieno[3,2-d]pyrimidin-2-yl)phenyl)piperidine-4-carboxamide] is 50 to 100 nM; for `O=CN1CCC(C(=O)Nc2cccc(-c3nc(N4CCOCC4)c4sc(-c5cccnc5)cc4n3)c2)CC1` [Example 28, 1-formyl-N-(3-(4-morpholino-6-(pyridin-3-yl)thieno[3,2-d]pyrimidin-2-yl)phenyl)piperidine-4-carboxamide] it is over 100 nM.
The figure for `CC(=O)N1CCC(C(=O)Nc2cccc(-c3nc(N4CCOCC4)c4sc(-c5cccnc5)cc4n3)c2)CC1` [Example 29, 1-acetyl-N-(3-(4-morpholino-6-(pyridin-3-yl)thieno[3,2-d]pyrimidin-2-yl)phenyl)piperidine-4-carboxamide] is over 100 nM; for `COC(=O)N1CCC(C(=O)Nc2cccc(-c3nc(N4CCOCC4)c4sc(-c5cccnc5)cc4n3)c2)CC1` [Example 30, methyl 4-((3-(4-morpholino-6-(pyridin-3-yl)thieno[3,2-d]pyrimidin-2-yl)phenyl)carbamoyl)piperidine-1-carboxylate] it is over 100 nM.
Regarding `CCOC(=O)N1CCC(C(=O)Nc2cccc(-c3nc(N4CCOCC4)c4sc(-c5cccnc5)cc4n3)c2)CC1` [Example 31, ethyl 4-((3-(4-morpholino-6-(pyridin-3-yl)thieno[3,2-d]pyrimidin-2-yl)phenyl)carbamoyl)piperidine-1-carboxylate], the IC50 is at most 50 nM.

Source of the values: patent US20250042914A1, “PIKFYVE KINASE INHIBITOR” (HANMI PHARM. CO., LTD., priority 2021, published 2025).
